In brackets after ≈: the same amount, converted by molar mass. Entries after “also recorded” stand apart in the source; their conditions may differ. Like-named read-outs stand apart in the source and are kept apart here.
Assays:
[1] = system: C. albicans 475/15; parameters: method as in PMID 28827996; details: previously published; cited from earlier work
[2] = system: S. aureus efflux; parameters: method as in PMID 25961825; details: bacterial efflux pumps; cited from earlier work
[3] = system: C. albicans biofilm; details: cited from earlier work
[4] = system: C. albicans 475/15 biofilm formation; assay: Inhibition of biofilm formation (crystal violet); assay type: cell-based, Candida albicans; details: for reduction of biofilm formation: concentration not given
Experimental: Potential of selected compounds to interfere with C. albicans 475/15 biofilm formation was investigated as previously described. Briefly, C. albicans 475/15 was incubated with serial dilution of the compounds (MIC and subMICs) in YPD medium, in 96-well microtiter plates with adhesive bottom (Sarstedt, Nümbrecht, Germany), at 37 °C for 24 h. After incubation, wells were washed twice with sterile PBS and methanol was added into each well. After fixation, methanol was discarded, and the plate was air dried. Formed biofilms were stained with 0.1% crystal violet (Bio-Merieux, Craponne, France) for 30 min. The plate was gently washed under the tap of water and air dried. The stain bound to the remaining biofilms was dissolved with ethanol (96%, Zorka, Šabac, Serbia). Absorbance was read on a Multiskan™ FC Microplate Photometer, Thermo Scientific™. The percentage of inhibition of biofilm formation was calculated by the formula:[(A620control − A620sample)/A620control] × 100

[5] = system: CDR1; assay: Expression of CDR1 (qPCR); assay type: cell-based, Candida albicans; details: treatment with MIC; for CDR1 expression level, log2FC: 30 min, normalized to ACT1
Experimental: (§1) Total RNA was isolated as described by Sanglard et al. with some modifications. C. albicans 475/15 was grown with agitation at 30 °C in YEPD until OD540 = 0.4. C. albicans cells were incubated with MIC of compounds in YEPD at 30 °C with agitation for 30 min. Cells were centrifuged (4600 rpm, 4 °C for 5 min (Rotanata 460 R, Hettich, Tuttlingen, Germany)) and the pellet was resuspended in 300 µL of RNA buffer (0.1 M Tris-HCl pH 7.5, 0.1M LiCl, 10mM EDTA, 0.5% SDS). The pellet was homogenized with 200 µL of DEPC treated glass beads and 300 µL of Phenol:Chloroform:Isoamyl Alcohol (Sigma-Aldrich, Darmstadt, Germany) in Precellys Evolution tissue homogenizer (Bertion instruments, Montigny-le-Bretonneux, France) at 4500 rpm for 5 s. After centrifugation (14,000 rpm, 4 °C, 1 min (Universal 32 R, Hettich, Tuttlingen, Germany)) 200 µL of supernatant was vortexed with 250 µL of Phenol:Chloroform:Isoamyl Alcohol for 10 s. Samples were centrifuged (14,000 rpm, 4 °C, 1 min) and 200 µL of supernatant was transferred to new tubes, 400 µL of ice-cold 99% ethanol was added to each tube, and they were kept on dry ice for 10 min. Samples were centrifuged (14,000 rpm, 4 °C, 2 min), pellet was washed with ethanol (70%), left to dry at room temperature, after which it was dissolved in 50 µL of DEPC treated water. Nanodrop (ND-1000, Witec AG, Sursee, Switzerland) was used for determination of concentration and purity of samples. RNA was stored at −80°C.
(§2) Amount of 10 µg RNA was incubated with 5 µL of DNAse buffer and 1 µL of DNAse at 37 °C for 30 min (DNA-free™ DNA Removal Kit, Ambion, Bleiswijk, Netherlands). After addition of DNAse inactivation reagent tubes were kept at room temperature with occasional vortexing for 5 min. Samples were centrifuged (14,000 rpm, 4°C, 2 min) and the concentration and quality of supernatant were analyzed on Nanodrop (ND-1000, Witec AG, Sursee, Switzerland).
(§3) Synthesis of cDNA was done with a Transcriptor High Fidelity cDNA synthesis kit (Roche). RNA (1 µg) was incubated with 60 µM random hexamer primers, in 11.4 µL of total sample volume, at 65 °C for 10 min. The mixture of Transcriptase reaction buffer 5×, Deoxynucleotide mix, DTT, Protector RNAse inhibitor, and Transcriptor High Fidelity Reverse Transcriptase was added to each tube according to manufacturer instructions. Synthesis of cDNA was completed by incubating the mixture at 50 °C for 30 min and 85 °C for 5 min (Peqstar thermocycler, Peqlab, Erlangen, Germany).
(§4) Wells of MicroAmp Fast 96-Well Reaction plate ((0.1 mL), Applied biosystems, Waltham, MA, USA) were incubated with 10 µL of mixture (cDNA, 2× MasterMix, primers, probe (Table 3), and water). Analysis was performed in StepOnePlus Real Time PCR system with relative standard curve method. Expression levels of CDR1 and ERG11 were normalized to expression of ACT1.

[6] = system: ERG11; assay: Expression of ERG11 (qPCR); assay type: cell-based, Candida albicans; details: treatment with MIC
Experimental: as §1, §2, §3, §4

[7] = in vitro; details: pig
Experimental: (§5) Preparation of PLP2 cell line was performed with freshly harvested porcine liver supplied from a local slaughter house. Tissues from the liver were washed in Hank’s balanced salt solution comprising 100 U/mL penicillin and 100 μg/mL streptomycin and split into 1 × 1 mm^3 explants. Some of the prepared explants were set in 25 cm^2 tissue flasks in Dulbecco’s modified Eagle’s medium (DMEM) with 10% fetal bovine serum (FBS), 2 mM nonessential amino acids, 100 U/mL penicillin, and […] streptomycin, and incubation was conducted at 37 °C with 5% CO2 in a humidified atmosphere. The fresh medium was added every 2 days. Cultivation of the cells was further conducted with direct observation by the phase contrast microscope every 2–3 days. Before confluence was achieved, cells were subcultured and seeded in 96-well plates at a density of 1.0 × 10^4 cells per well and cultivated in DMEM supplemented with 10% FBS, 100 U/mL penicillin, and 100 μg/mL streptomycin. Previously described Sulforhodamine B assay was used for the determination of cytotoxicity. The obtained results were defined as GI50 values corresponding to the compound concentration that inhibits 50% of the net cell growth. Ellipticine was used as a positive control.

[8] = system: C. albicans 475/15 hyphal growth; assay: Anti-hyphal forming activity; assay type: cell-based, Candida albicans; details: MIC, 4 h, YPD + 10% FBS
Experimental: C. albicans 475/15 cells were incubated with MIC of tested compounds in YPD + 10% FBS, at 37 °C, for 4 h. Cells were examined under microscope (Nikon Eclipse TS2, Amsterdam, Netherland) and number of cells, growing in the yeast or hyphal and germ tube formations, was determined. Assay was performed in triplicate and percentage of hyphae was determined.

[9] = system: HUVE (human umbilical vein endothelial) cells; details: read-out: LC50; cited from earlier work
[10] = system: 3T3-L1 pre-adipocytes; details: up to 100 μM; cited from earlier work
[11] = system: porcine liver cells PLP2; assay: Cytotoxicity, Sulforhodamine B assay; details: PLP2 cells
Experimental: as §5

[12] = system: ERG11; details: identical assay, previously published; cited from earlier work
[13] = system: C. albicans 13/15; assay: Microdilution assay, MIC and MFC; assay type: cell-based; details: Candida albicans, C. albicans 13/15, mean ± SD of three replicates
From the text: (§6) C. albicans was isolated from oral cavities of patients at ENT Clinic, Clinical Hospital Centre Zvezdara, Belgrade, Serbia after obtaining informed written consent and identified by using CHROMagar plates (Biomerieux, Craponne, France). Strains were maintained on Sabouraud Dextrose Agar (Merck, Darmstadt, Germany) and are deposited at the Mycological Laboratory, Department of Plant Physiology, Institute for Biological Research “Siniša Stanković”, National Institute of Republic of Serbia, University of Belgrade. The collection of samples was approved by the Ethical Committee (Office for Human Research Protection, Zvezdara University Medical Center, Belgrade, Serbia, document issued 26 October 2016).
(§7) Microdilution assay with some modification was used for determination of minimum inhibitory (MIC) and minimum fungicidal concentrations (MFC). Yeast cultures were adjusted to 1.0 × 10^5 CFU/per well with sterile PBS (Phosphate buffered saline, pH 7.4). The 96-well microtiter plates with serially diluted flavonoids (concentration range 0.3–75 µg/mL) in liquid broth were incubated at 37 °C for 24 h. After incubation, MIC and MFC were determined. The lowest concentrations that were not inducing microscopically observed growth were considered as MIC. For microscopic determination of growth, we used inverted microscope Nikon Eclipse TS2 (Amsterdam, Netherland) and examined the fungal growth in the wells of 96-well microtiter plates compared to the control (untreated yeast cells). MFC values were determined as concentrations without visible growth after serial sub-cultivation of 10 µL of samples at 37 °C for 24 h. Ketoconazole and amphotericin B (SigmaAldrich, Darmstadt, Germany) were used as an antifungal control. The tested flavonoids were obtained from Extrasynthese, Rhone, France.

[14] = system: C. albicans 475/15; assay: Microdilution assay, MIC and MFC; assay type: cell-based; details: Candida albicans, C. albicans 475/15, mean ± SD of three replicates
From the text: as §6, §7

[15] = system: C. albicans 527/14; assay: Microdilution assay, MIC and MFC; assay type: cell-based; details: Candida albicans, C. albicans 527/14, mean ± SD of three replicates
From the text: as §6, §7

[16] = system: C. albicans 10/15; assay: Microdilution assay, MIC and MFC; assay type: cell-based; details: Candida albicans, C. albicans 10/15, mean ± SD of three replicates
From the text: as §6, §7

[17] = system: CDR1; details: identical assay, previously published; cited from earlier work

O=c1cc(-c2ccc(O)cc2)oc2cc(O)cc(O)c12 [Apigenin, apigenin]
MIC [1]: 100 µg/mL (≈ 370 µM) | concentration that inhibited bacterial efflux pumps [2]: 38 µg/mL | antibiofilm effect ([3]; 125 µg/mL, oral and reference isolates SC5314 and 3153A): did not show any antibiofilm effect | concentration necessary for biofilm reduction ([3]; C. albicans ATCC 90028): 5 µg/mL | reduction of biofilm formation [4]: more than 50% | CDR1 expression level, log2FC [5]: < −1 log2FC | impact on CDR1 expression ([5]; listed as apigenin): downregulated; also recorded: inhibitory impact; also recorded: lowering CDR1 expression | impact on ERG11 expression (words) [6]: negative impact | impact on ERG11 expression (words) ([6]; listed as apigenin): lower expression levels; also recorded: lowering ERG11 expression | GI50 [7]: > 400 µg/mL | reduction of hyphal growth (words) [8]: lowest number of cells growing in the hyphal form | CC50 [9]: 110 µM

O=c1cc(-c2ccc(O)cc2)oc2cc(O[C@@H]3O[C@H](CO)[C@@H](O)[C@H](O)[C@H]3O)cc(O)c12 [Apigetrin, apigetrin]
cytotoxicity [10]: does not induce cytotoxicity | MIC [1]: 50 µg/mL (≈ 116 µM) | antibiofilm activity ([4]; MIC and subMICs): notably lowered | inhibition of biofilm formation ([4]; compound applied at MIC/2): > 60% | reduction of biofilm formation [4]: more than 50% | impact on CDR1 expression [5]: downregulated; also recorded: inhibitory impact; also recorded: lowering CDR1 expression | CDR1 expression level, log2FC [5]: < −1 log2FC | GI50 [7]: 90 ± 1 µg/mL (≈ 208 µM) | cytotoxic effect [11]: some cytotoxic effect | reduction of hyphal growth (words) [8]: lowest number of cells growing in the hyphal form; also recorded: strongest anti-hyphal potential

CC(=O)N1CCN(c2ccc(OCC3COC(Cn4ccnc4)(c4ccc(Cl)cc4Cl)O3)cc2)CC1 (centres unmarked) [Ketoconazole, reference compound]
impact on ERG11 expression (words) [12]: lack | MFC ([13]; read-out: MFC): 50 ± 0.2 µg/mL (≈ 94.1 µM) | MIC ([13]; read-out: MIC): 1.6 ± 0.2 µg/mL (≈ 3.01 µM) | MFC ([14]; read-out: MFC): 6.2 ± 0.1 µg/mL (≈ 11.7 µM) | MIC ([14]; read-out: MIC): 3.1 ± 0.1 µg/mL (≈ 5.83 µM) | MFC ([15]; read-out: MFC): 6.2 ± 0.1 µg/mL (≈ 11.7 µM) | MIC ([15]; read-out: MIC): 3.1 ± 0.1 µg/mL (≈ 5.83 µM) | MFC ([16]; read-out: MFC): 50 ± 0.1 µg/mL (≈ 94.1 µM) | MIC ([16]; read-out: MIC): 3.1 ± 0.1 µg/mL (≈ 5.83 µM) | impact on CDR1 expression [17]: lack
